Assays:
[1] = Odour detection threshold (ODT), olfactometer TO8, expert panel, DIN EN 13725; details: for ODT (odour detection threshold): olfactometer TO8, panel of at least four experts
From the text: The odour detection threshold is defined as the lowest concentration of a certain odorous compound (gaseous and sensorially active substance) which is perceivable and thus which can be distinguished with certainty from a blank reference under standard conditions. Generally, lower ODT values are preferred as a lower amount of the corresponding fragrance compound is required in order to a achieve an intense odour impressions and thus overall lower amounts can be used for perfuming. However, as the threshold depends on various factors such as concentration, solubility, partition coefficient between air and the olfactory active substance, vapor pressure and the like, predictions referring to the ODT of a substance, i.e. a fragrance material are difficult to make. The ODT was measured using an olfactometer TO8 and a panel of at least four experts according to DIN standard EN 13725.

[2] = Chemical stability in citric acid-based cleaner pH 2 (SPME GC-MS); type: physicochemical; details: for acid-stability compared with Javanol: 0.3% in citric acid-based cleaner pH 2, 14 days, 6, 22, 40 and 50 °C, versus fresh sample
Description: In order to analyse the stability of the inventive compounds, different samples each containing 0.3% of either compound 3a, compound 3b or Javanol® (Givaudan), respectively, in a citric acid-based cleaner having a pH of 2 were analysed, i.e., the stability test was carried out using a representative acidic cleaner (pH=2) in which the corresponding fragrance compounds were incorporated in an amount of 0.3% relative to the acidic cleaner.
The stability was analysed via solid-phase microextraction (SPME) and coupled gas chromatography-mass spectrometry (GC-MS) by using a combination of polydimethylsiloxane and divinylbenzene as SPME fibre coating (PDMS/DVB fibre) and a polydimethylsiloxane-based DB-1 column for gas chromatography (100% polydimethylsiloxane) for each sample containing one of the fragrance compounds as indicated above. The stability was tested for various samples after 14 days of acidic treatment at different storage temperatures (6° C., 22° C., 40° C. and 50° C.) in comparison to a freshly prepared sample as reference (see FIGURE).

Row | acid-stability at 22 °C ([2]; 0.3% in citric acid-based cleaner pH 2, 14 days, 22 °C) | decomposition at 50 °C ([2]; 0.3% in citric acid-based cleaner pH 2, 14 days, 50 °C) | SMILES | ODT (odour detection threshold) [1] | acid-stability compared with Javanol [2] | factor by which threshold value is lower than Javanol ([1]; ODT compared with Javanol (Givaudan)) | decomposition at moderate temperatures ([2]; 0.3% in citric acid-based cleaner pH 2, 14 days, moderate temperatures) | chemical stability under acidic conditions ([2]; acidic conditions, general statement)
1 | Best stabilities | – | CCC(CO)C1CC1C1CC2CC2(C)C1(C)C (stereo not shown) [Compound 3a, 2-[2-(1,2,2-trimethyl-3-bicyclo[3.1.0]hexanyl)cyclopropyl]butan-1-ol] | 0.000244 ppm (v/v) | better acid-stability over the whole temperature range | – | – | –
2 | – | – | CC(CO)C1CC1C1CC2CC2(C)C1(C)C (stereo not shown) [Compound 3b, 2-[2-(1,2,2-trimethyl-3-bicyclo[3.1.0]hexanyl)cyclo-propyl]propan-1-ol] | 0.0000165 ppm (v/v) | better acid-stability over the whole temperature range | about 6.5 | – | –
3 | – | fully decomposes | CC1(CO)CC1CC1CC2CC2(C)C1(C)C (stereo not shown) [Javanol®, [1-methyl-2-[(1,2,2-trimethyl-3-bicyclo[3.1.0]hexanyl)methyl]cyclo-propyl]methanol, reference compound] | 0.000104 ppm (v/v) | – | – | seems to decompose quickly even at moderate temperatures | not chemically stable under acidic conditions

Source: patent publication US12552732B2, “Cyclopropanated sandalwood type compounds” (Symrise AG, priority 2020, dated 2026)
